From the supplement of paper PMC10307832 come the findings set out here.

Holding throughout (experiment): relative viability (nuclei count vs DMSO), 5 days (fraction); higher = more cells survive
Compound in the experiment “Apatinib + Olaparib”: N#CC1(c2ccc(NC(=O)c3cccnc3NCc3ccncc3)cc2)CCCC1 [Apatinib] + O=C(c1cc(Cc2n[nH]c(=O)c3ccccc23)ccc1F)N1CCN(C(=O)C2CC2)CC1 [Olaparib] (partner 8 µM)
In outline: (§1)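 The day after seeding in 1536-well plates, lung cancer cell lines were treated by pin tool with a single drug, or with a fixed anchor-drug dose together with five library-drug doses (not always all listed) in √10 steps. After 5 days, a combined fix-and-stain solution (final 0.05% Triton X-100, 1% formaldehyde, 1 ug/ml Hoechst) was added. Nuclei counted on 4× images gave relative viability as treated counts over vehicle counts, reported as the median of duplicate plates.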

Compound in the experiment “Metformin + Trametinib”: CN(C)C(=N)NC(=N)N [Metformin] + CC(=O)Nc1cccc(-n2c(=O)n(C3CC3)c(=O)c3c(Nc4ccc(I)cc4F)n(C)c(=O)c(C)c32)c1 [Trametinib] (partner 0.02 µM)
In outline:
as §1

Compound in the experiment “Apatinib + Tozasertib”: N#CC1(c2ccc(NC(=O)c3cccnc3NCc3ccncc3)cc2)CCCC1 [Apatinib] + Cc1cc(Nc2cc(N3CCN(C)CC3)nc(Sc3ccc(NC(=O)C4CC4)cc3)n2)n[nH]1 [Tozasertib] (partner 0.1 µM)
In short, it runs like this:
as §1

Compound in the experiment “Metformin + Pemetrexed”: CN(C)C(=N)NC(=N)N [Metformin] + Nc1nc2[nH]cc(CCc3ccc(C(=O)N[C@@H](CCC(=O)O)C(=O)O)cc3)c2c(=O)[nH]1 [Pemetrexed] (partner 0.2 µM)
In outline:
as §1

Regarding NCI-H460, the relative viability with Apatinib + Olaparib (first compound 0.08 µM) came to 0.407; with Apatinib + Olaparib (first compound 0.253 µM), 0.444; with Apatinib + Olaparib (first compound 0.8 µM), 0.344; with Apatinib + Olaparib (first compound 2.53 µM), 0.323; with Apatinib + Olaparib (first compound 8 µM), 0.237; with Metformin + Trametinib (first compound 31.62 µM), 0.122. The relative viability with Metformin + Trametinib (first compound 100 µM) was found to be 0.136; in the experiment with Metformin + Trametinib (first compound 316.23 µM), 0.133; with Metformin + Trametinib (first compound 1000 µM), 0.253; in the experiment with Apatinib + Tozasertib (first compound 0.08 µM), 0.576; with Apatinib + Tozasertib (first compound 0.253 µM), 0.51; in the experiment with Apatinib + Tozasertib (first compound 0.8 µM), 0.223. Further, the relative viability in the experiment with Apatinib + Tozasertib (first compound 2.53 µM) was found to be 0.0517; with Apatinib + Tozasertib (first compound 8 µM) it was 0.053; with Metformin + Pemetrexed (first compound 31.62 µM), 0.0599; with Metformin + Pemetrexed (first compound 100 µM), 0.0625; with Metformin + Pemetrexed (first compound 316.23 µM), 0.0535; with Metformin + Pemetrexed (first compound 1000 µM), 0.0639.
